Data: patent publication US20040265323A1, “Compositions comprising pathogen elicited epithelial chemoattractant (eicosanoid hepoxilin A3), inhibitors thereof and methods of use thereof” (priority 2003, published 2004)

Assays:
12-LO pathway = assay: 12-S-HETE ELISA of lumenal fluid of S. typhimurium-infected xenografts; assay type: in vivo, human; details: S. typhimurium-infected xenografts with baicalein; average of two lumens
Experimental: (§1) Further, the effect of baicalein on S. typhimurium pathology in human intestinal xenografts was determined (Savidge et al., 1995) (FIG. 7). The human fetal intestinal xenograft model used in the present study has been previously described in detail (Savidge et al., 1995). Briefly, human fetal small intestine (n=3, gestational age 10-14weeks) was transplanted subcutaneously into C.B-17 severe-combined immunodeficient (SCID) mice. Xenografts were allowed to develop for a period between 10-20 weeks before use at which time the epithelium and underlying mucosa is fully differentiated (Savidge et al., 1995). Xenografts were infected with approximately 5×10^7 wild type S. typhimurium SL1344 in sterile HBSS(+) buffer in a 100 μl volume injected intralumenally by subcutaneous injection. […]
(§2) It was further confirmed that treatment of the intestinal xenografts with baicalein inhibited the 12-LO pathway by measuring the amount of 12-S-HETE, a major 12-LO metabolite, released into the lumenal fluid. […] Finally, it was determined that there was no statistical difference in the amount IL-8 produced in the S. typhimurium-infected intestinal xenografts in the absence compared to the presence of baicalein treatment (200±53 pg/mg compared to 225±30 pg/mg, respectively, verses 52±11 pg/mg for uninfected control). […]

[1] = system: intestinal inflammation (rectal prolapse); assay: Intestinal inflammation in SCID mice induced by CD45RBHI T cell transfer; assay type: in vivo
Experimental: The therapeutic benefits of baicalein on subsiding intestinal inflammation, which was induced in SCID mice by i.v. injection of CD4+ CD45RB HI T cells, was examined. For these experiments, spleens were collected from 6-12 week old donor mice (BALB/c) and splenocytes were isolated by mechanical homogenization of whole spleens. The CD4+ T cells were selected by positive selection. In brief, a cell suspension of pooled splenocytes from 4-5 donor mice was incubated with anti-CD4 (L3T4) antibody coated magnetic beads (DYNABEADS: Catalog # 114.05, Dynal, Lake Success, N.Y.) for 20-30 minutes at 4° C. and separated by magnetic cell sorting with a Dynal Magnetic Particle Concentrator (MPC). Cells were removed from the cell-bead complex with Dynal DETACHaBEAD, and isolated from beads using a Dynal MPC. The resulting CD4+ enriched population was >90% pure. The cell suspension was then incubated with Fc block (anti-CD32, PharMingen, 01241A) and labeled with anti-CD4-FITC (PharMingen, 9004D) and anti-CD45RB-PE (PharMingen, 01145A), for 30 minutes at 4° C. washed, and sorted using a FACSTAR (Becton Dickinson, San Jose, Calif.) cell sorter. Double positive cells (CD4+/CD45Rb+) were collected, selecting the cells that expressed high levels of CD45Rb (brightest 45%). The collected cell population was >90% pure and viable. Cells were then washed in cold […] buffered saline (PBS Sigma D8662) and resuspended in PBS. Balb/c SCID mice, aged 6-12 weeks, were injected intravenously with CD45RBHI Tcells in the tail vein.
Ten weeks post CD45RBHI T cell transfer, roughly 30% of SCID mice developed intestinal inflammation, characterized by mucin depletion, goblet cell loss, epithelial hyperplasia and finally rectal prolapse (FIG. 8). These mice were divided equally among treatment groups The first treatment group received buffer control alone (sterile Hanks Balanced Salts Solution (“HBSS”)) and the second and the third treatment groups received low (2 μM) and high (200 μM) doses of baicalein i.v., respectively, every other day along with a vehicle control. […]

IL-8 production = assay: IL-8 produced in S. typhimurium-infected intestinal xenografts; assay type: in vivo, human; details: S. typhimurium-infected xenografts in the presence of baicalein
Experimental: as §1, §2

With `O=c1cc(-c2ccccc2)oc2cc(O)c(O)c(O)c12` [baicalein] the “12-S-HETE in lumenal fluid” value (12-LO pathway) was 21.5 ng/mL, the rectal prolapse ([1]; high dose 200 μM i.v. every other day, 2.5 weeks) was “complete recovery of rectal prolapse” and the “health status and rectal prolapse” value ([1]; low dose 2 μM i.v. every other day, 2.5 weeks) was “no improvement of their health status and rectal prolapse”. For the same molecule, the “illness (rectal prolapse, diarrhea, weight loss)” value ([1]; therapeutic regimen, after 2 weeks) was “resolved the illness” and the IL-8 produced (IL-8 production) was 225 ± 30 pg/mg.
